This assay concerns the target ROCK2 (human) (UniProt O75116). In words: Inhibition of ROCK2 Kinase Activity.

From the Kinase Knowledgebase extract (Sharma et al. 2016) come the findings set out here.

For orientation: IC50 means the point on the concentration scale where inhibition reaches its midpoint. A low value points to inhibition by little substance.

Molecules are shown by their SMILES.

Sequence of ROCK2 (human) (O75116 whole entry, looked up): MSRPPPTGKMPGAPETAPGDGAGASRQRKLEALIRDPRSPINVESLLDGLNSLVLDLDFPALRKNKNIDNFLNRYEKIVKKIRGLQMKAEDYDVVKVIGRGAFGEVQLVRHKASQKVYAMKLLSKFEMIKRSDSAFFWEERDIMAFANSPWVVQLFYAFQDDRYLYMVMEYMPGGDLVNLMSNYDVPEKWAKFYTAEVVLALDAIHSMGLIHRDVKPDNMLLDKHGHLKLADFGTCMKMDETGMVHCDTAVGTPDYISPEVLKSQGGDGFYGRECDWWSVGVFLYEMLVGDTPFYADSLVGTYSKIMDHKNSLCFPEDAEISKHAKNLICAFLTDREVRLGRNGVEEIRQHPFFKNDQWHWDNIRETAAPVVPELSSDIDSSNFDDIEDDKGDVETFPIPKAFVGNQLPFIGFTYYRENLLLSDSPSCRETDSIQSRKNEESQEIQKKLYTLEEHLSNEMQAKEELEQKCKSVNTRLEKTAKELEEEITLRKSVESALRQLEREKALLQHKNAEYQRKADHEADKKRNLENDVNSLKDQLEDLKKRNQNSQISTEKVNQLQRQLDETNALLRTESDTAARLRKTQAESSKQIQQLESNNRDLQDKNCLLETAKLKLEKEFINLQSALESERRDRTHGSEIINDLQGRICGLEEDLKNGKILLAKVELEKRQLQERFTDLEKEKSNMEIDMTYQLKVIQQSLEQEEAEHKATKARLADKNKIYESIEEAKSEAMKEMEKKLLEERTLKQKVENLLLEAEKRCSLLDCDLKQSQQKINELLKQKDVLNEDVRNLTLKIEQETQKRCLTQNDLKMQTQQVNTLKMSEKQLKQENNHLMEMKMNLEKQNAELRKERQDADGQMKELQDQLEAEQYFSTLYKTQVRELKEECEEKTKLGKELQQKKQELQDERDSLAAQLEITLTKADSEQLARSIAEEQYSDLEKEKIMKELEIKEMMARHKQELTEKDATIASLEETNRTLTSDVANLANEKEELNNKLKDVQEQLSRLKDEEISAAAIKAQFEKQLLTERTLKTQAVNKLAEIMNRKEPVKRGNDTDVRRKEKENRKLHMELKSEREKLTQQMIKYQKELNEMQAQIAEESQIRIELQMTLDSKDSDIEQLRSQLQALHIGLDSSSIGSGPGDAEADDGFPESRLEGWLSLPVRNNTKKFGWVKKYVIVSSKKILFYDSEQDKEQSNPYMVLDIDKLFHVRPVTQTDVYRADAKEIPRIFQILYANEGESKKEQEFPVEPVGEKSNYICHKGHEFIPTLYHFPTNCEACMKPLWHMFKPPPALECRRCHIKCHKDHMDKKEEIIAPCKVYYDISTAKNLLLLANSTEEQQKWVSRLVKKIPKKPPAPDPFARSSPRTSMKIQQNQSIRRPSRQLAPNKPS

`NC(CNC(=O)Nc1ccc2ccccc2c1)c1ccc(C(=O)Nc2ccncc2)cc1` (stereo unspecified) displayed an IC50 of 50 to 500 nM.

Regarding `N#CCCN(C(=O)CC(N)c1ccc(C(=O)Nc2ccncc2)cc1)C1CC1` (stereo unspecified), the IC50 was 500 to 5000 nM.

The compound `CN(CC(N)c1ccc(C(=O)Nc2ccncc2)cc1)C(=O)C1CCOc2ccccc21` (stereo unspecified) showed an IC50 of 500 to 5000 nM.

`NC(CNC(=S)Nc1cccc2ccccc12)c1ccc(C(=O)Nc2ccncc2)cc1` (stereo unspecified) had a half-maximal inhibitory concentration (IC50) of 50 to 500 nM.

`COc1ccc(NC(=O)NCC(N)c2ccc(C(=O)Nc3ccncc3)cc2)cc1` (stereo unspecified) yielded an IC50 of 50 to 500 nM.

`NC(CNC(=O)Cc1ccc2c(c1)OCO2)c1ccc(C(=O)Nc2ccncc2)cc1` (stereo unspecified) returned an IC50 of 50 to 500 nM.

Regarding `NC(CNC(=O)C1CC1)c1ccc(C(=O)Nc2ccncc2)cc1` (stereo unspecified), the IC50 lay in the range of 500 to 5000 nM.

On to `CC(C)(C)c1ccc(CCNC(=O)CC(N)c2ccc(C(=O)Nc3ccncc3)cc2)cc1` (stereo unspecified), for which the half-maximal inhibitory concentration (IC50) fell in the range of 50 to 500 nM.

`NC(CNC(=O)c1ccnc2ccccc12)c1ccc(C(=O)Nc2ccncc2)cc1` (stereo unspecified) returned an IC50 of 500 to 5000 nM.

Take `NC(c1ccc(C(=O)Nc2ccncc2)cc1)C1CCCN1C(=O)C1CCSc2ccc(F)cc21` (stereo unspecified): the IC50 lay in the range of 500 to 5000 nM.

Compound `NC(CC(=O)NC1CCCc2ccccc21)c1ccc(C(=O)Nc2ccncc2)cc1` (stereo unspecified) displayed an IC50 of 50 to 500 nM.

`NC(CNC(=O)C1Cc2ccccc21)c1ccc(C(=O)Nc2ccncc2)cc1` (stereo unspecified) came in with an IC50 of 50 to 500 nM.

The compound `NC(CC(=O)NCCc1cccc(F)c1)c1ccc(C(=O)Nc2ccncc2)cc1` (stereo unspecified) had a half-inhibitory concentration (IC50) of 500 to 5000 nM.

On to `COc1ccc(CNC(=O)CC(N)c2ccc(C(=O)Nc3ccncc3)cc2)cc1` (stereo unspecified), for which the IC50 fell in the range of 50 to 500 nM.

`NC(CNC(=O)C1(c2ccccc2)CC1)c1ccc(C(=O)Nc2ccncc2)cc1` (stereo unspecified) gave an IC50 of 500 to 5000 nM.

For the compound `NC(c1ccc(C(=O)Nc2ccncc2)cc1)C1CCCN1C(=O)Cc1ccccc1` (stereo unspecified), the IC50 was in the range of 50 to 500 nM.

`N[C@@H](CNC(=O)C1(c2ccc(F)cc2)CCCC1)c1ccc(C(=O)Nc2ccncc2)cc1` had a half-maximal inhibitory concentration (IC50) of 500 to 5000 nM.

`NC(CNC(=O)Nc1cccc2ccccc12)c1ccc(C(=O)Nc2ccncc2)cc1` (stereo unspecified) displayed an IC50 of 50 to 500 nM.

`N#Cc1cccc(C(=O)NCC(N)c2ccc(C(=O)Nc3ccncc3)cc2)c1` (stereo unspecified) yielded an IC50 of 500 to 5000 nM.

The compound `NC(CNC(=O)c1csc(-c2ccccc2)n1)c1ccc(C(=O)Nc2ccncc2)cc1` (stereo unspecified) came in with a half-inhibitory concentration (IC50) of 500 to 5000 nM.

`CC(C)(C(=S)NCC(N)c1ccc(C(=O)Nc2ccncc2)cc1)c1ccc(F)cc1` (stereo unspecified) returned an IC50 of 50 to 500 nM.

On to `NC(CC(=O)NCCc1cccs1)c1ccc(C(=O)Nc2ccncc2)cc1` (stereo unspecified), for which the IC50 fell in the range of 50 to 500 nM.

Take `NC(CC(=O)N[C@@H]1CCc2ccccc21)c1ccc(C(=O)Nc2ccncc2)cc1` (stereo partly specified): the half-inhibitory concentration (IC50) is 50 to 500 nM.

With `NC(CNC(=O)CSc1ncccn1)c1ccc(C(=O)Nc2ccncc2)cc1` (stereo unspecified), the IC50 was 500 to 5000 nM.

`CN(CC(N)c1ccc(C(=O)Nc2ccncc2)cc1)C(=O)Cc1cccc2ccccc12` (stereo unspecified): the IC50 lay in the range of 500 to 5000 nM.

`CCCCC(=O)NCC(N)c1ccc(C(=O)Nc2ccncc2)cc1` (stereo unspecified): the IC50 is 500 to 5000 nM.

In turn, `CN(C)c1ccc(NC(=O)NCC(N)c2ccc(C(=O)Nc3ccncc3)cc2)cc1` (stereo unspecified) yielded an IC50 of 50 to 500 nM.

`CN(CC(N)c1ccc(C(=O)Nc2ccncc2)cc1)C(=O)Cc1ccc(F)cc1F` (stereo unspecified) registered a half-inhibitory concentration (IC50) of 500 to 5000 nM.

Compound `NC(CNC(=O)c1c[nH]cn1)c1ccc(C(=O)Nc2ccncc2)cc1` (stereo unspecified) yielded an IC50 of 500 to 5000 nM.

In the case of `NC(CNC(=O)c1cccc(Cn2cccn2)c1)c1ccc(C(=O)Nc2ccncc2)cc1` (stereo unspecified), the IC50 fell in the range of 500 to 5000 nM.

For `NC(CNC(=O)c1ccc2[nH]ccc2c1)c1ccc(C(=O)Nc2ccncc2)cc1` (stereo unspecified), the half-inhibitory concentration (IC50) lay in the range of 50 to 500 nM.

In turn, `COc1cc(OC)cc(C(=O)NCC(N)c2ccc(C(=O)Nc3ccncc3)cc2)c1` (stereo unspecified) returned an IC50 of 500 to 5000 nM.

`CCN(Cc1ccc([N+](=O)[O-])cc1)C(=O)CC(N)c1ccc(C(=O)Nc2ccncc2)cc1` (stereo unspecified) gave a half-inhibitory concentration (IC50) of 50 to 500 nM.

Compound `CN(CC(N)c1ccc(C(=O)Nc2ccncc2)cc1)C(=O)C1(c2ccc(F)c(F)c2)CC1` (stereo unspecified) showed a concentration for half-maximal inhibition (IC50) of 500 to 5000 nM.

On to `CC(NC(=O)CC(N)c1ccc(C(=O)Nc2ccncc2)cc1)c1cccc2ccccc12` (stereo unspecified), for which the half-inhibitory concentration (IC50) is 50 to 500 nM.

`CC(C)(C(=O)NCC(N)c1ccc(C(=O)Nc2ccncc2)cc1)c1ccc(F)cc1` (stereo unspecified) displayed an IC50 of 50 to 500 nM.
